The source of these data is PubChem BioAssay AID1259407 (Chemical Carcinogenesis Research Information System (CCRIS), 2018).

Activity calls are given as the source filed them. The rule behind the calls is not given here.

This series deals with CCRIS mutagenicity, Ames/micronucleus/aberration tests. The experiment in a line: CCRIS mutagenicity studies.
Setting [1] is: Test System: AMES SALMONELLA TYPHIMURIUM, Strain/Indicator: TA98, Metabolic Activation: NONE, Method: PREINCUBATION
[2] abbreviates: Test System: AMES SALMONELLA TYPHIMURIUM, Strain/Indicator: TA100, Metabolic Activation: NONE, Method: PREINCUBATION

On to `[Cl][Cr]([Cl])[Cl]`, for which the mutagenic call reads like this: (End Point: IN VITRO MICRONUCLEUS, Test System: CHL/IU CELLS, Metabolic Activation: NONE) “active; positive”; (Test System: AMES SALMONELLA TYPHIMURIUM, Strain/Indicator: TA94, Metabolic Activation: NONE, Method: STANDARD PLATE) “active; positive”; (Test System: AMES SALMONELLA TYPHIMURIUM, Strain/Indicator: TA98, Metabolic Activation: HAMSTER, LIVER, S-9, AROCLOR 1254, Method: STANDARD PLATE) “inactive; negative”; under setting [1], “inactive; negative”; (Test System: AMES SALMONELLA TYPHIMURIUM, Strain/Indicator: TA98, Metabolic Activation: RAT, LIVER, S-9, AROCLOR 1254, Method: STANDARD PLATE) “inactive; negative”; (Test System: AMES SALMONELLA TYPHIMURIUM, Strain/Indicator: TA98, Metabolic Activation: RAT, LIVER, S-9, PHENOBARBITAL AND BETA-NAPHTHOFLAVONE, Method: PREINCUBATION) “inactive; negative”. For the same compound, the mutagenic call is, setting by setting: (Test System: AMES SALMONELLA TYPHIMURIUM, Strain/Indicator: TA100, Metabolic Activation: HAMSTER, LIVER, S-9, AROCLOR 1254, Method: STANDARD PLATE) “inactive; negative”; under setting [2], “inactive; negative”; (Test System: AMES SALMONELLA TYPHIMURIUM, Strain/Indicator: TA100, Metabolic Activation: NONE, Method: STANDARD PLATE) “inactive; negative”; (Test System: AMES SALMONELLA TYPHIMURIUM, Strain/Indicator: TA100, Metabolic Activation: RAT, LIVER, S-9, AROCLOR 1254, Method: STANDARD PLATE) “inactive; negative”; (Test System: AMES SALMONELLA TYPHIMURIUM, Strain/Indicator: TA100, Metabolic Activation: RAT, LIVER, S-9, PHENOBARBITAL AND BETA-NAPHTHOFLAVONE, Method: PREINCUBATION) “inactive; negative”; (Test System: AMES SALMONELLA TYPHIMURIUM, Strain/Indicator: TA102, Metabolic Activation: HAMSTER, LIVER, S-9, AROCLOR 1254, Method: STANDARD PLATE) “active; positive”. Besides, the mutagenic call runs as follows: (Test System: AMES SALMONELLA TYPHIMURIUM, Strain/Indicator: TA102, Metabolic Activation: RAT, LIVER, S-9, AROCLOR 1254, Method: STANDARD PLATE) “active; positive”; (Test System: AMES SALMONELLA TYPHIMURIUM, Strain/Indicator: TA1535, Metabolic Activation: HAMSTER, LIVER, S-9, AROCLOR 1254, Method: STANDARD PLATE) “inactive; negative”; (Test System: AMES SALMONELLA TYPHIMURIUM, Strain/Indicator: TA1535, Metabolic Activation: NONE, Method: PREINCUBATION) “inactive; negative”; (Test System: AMES SALMONELLA TYPHIMURIUM, Strain/Indicator: TA1535, Metabolic Activation: NONE, Method: STANDARD PLATE) “inactive; negative”; (Test System: AMES SALMONELLA TYPHIMURIUM, Strain/Indicator: TA1535, Metabolic Activation: RAT, LIVER, S-9, AROCLOR 1254, Method: STANDARD PLATE) “inactive; negative”; (Test System: AMES SALMONELLA TYPHIMURIUM, Strain/Indicator: TA1535, Metabolic Activation: RAT, LIVER, S-9, PHENOBARBITAL AND BETA-NAPHTHOFLAVONE, Method: PREINCUBATION) “inactive; negative”. For the same compound, the mutagenic call runs as follows: (Test System: AMES SALMONELLA TYPHIMURIUM, Strain/Indicator: TA1537, Metabolic Activation: HAMSTER, LIVER, S-9, AROCLOR 1254, Method: STANDARD PLATE) “inactive; negative”; (Test System: AMES SALMONELLA TYPHIMURIUM, Strain/Indicator: TA1537, Metabolic Activation: NONE, Method: PREINCUBATION) “inactive; negative”; (Test System: AMES SALMONELLA TYPHIMURIUM, Strain/Indicator: TA1537, Metabolic Activation: NONE, Method: STANDARD PLATE) “inactive; negative”; (Test System: AMES SALMONELLA TYPHIMURIUM, Strain/Indicator: TA1537, Metabolic Activation: RAT, LIVER, S-9, AROCLOR 1254, Method: STANDARD PLATE) “inactive; negative”; (Test System: AMES SALMONELLA TYPHIMURIUM, Strain/Indicator: TA1537, Metabolic Activation: RAT, LIVER, S-9, PHENOBARBITAL AND BETA-NAPHTHOFLAVONE, Method: PREINCUBATION) “inactive; negative”; (Test System: AMES SALMONELLA TYPHIMURIUM, Strain/Indicator: TA1538, Metabolic Activation: NONE, Method: PREINCUBATION) “inactive; negative”. Further, the mutagenic call reads like this: (Test System: AMES SALMONELLA TYPHIMURIUM, Strain/Indicator: TA1538, Metabolic Activation: RAT, LIVER, S-9, PHENOBARBITAL AND BETA-NAPHTHOFLAVONE, Method: PREINCUBATION) “inactive; negative”; (Test System: CHINESE HAMSTER OVARY CELLS, Strain/Indicator: CHO CELLS (HPRT)/6-THIOGUANINE, Metabolic Activation: NONE, Method: STANDARD PLATE) “active; positive”; (Test System: E. COLI, Strain/Indicator: WP2 UVRA, Metabolic Activation: NONE, Method: SPOT TEST) “inactive; negative”; (Test System: E. COLI, Strain/Indicator: WP2UVRA, Metabolic Activation: RAT LIVER S-9, PHENOBARBITAL AND BETA-NAPHTHOFLAVONE, Method: PREINCUBATION) “inactive; negative”; (Test System: E.COLI, Strain/Indicator: WP2UVRA, Metabolic Activation: NONE, Method: PREINCUBATION) “inactive; negative”; (Test System: Mouse lymphoma, Strain/Indicator: L5178Y (tk+/tk-), Metabolic Activation: None, Method: Suspension/plate) “inactive; negative”. For the same compound, where the note is “Test System: Mouse lymphoma, Strain/Indicator: L5178Y (tk+/tk-), Metabolic Activation: Rat, Liver, S-9, Aroclor 1254, Method: Suspension/plate”, the mutagenic call is “active; equivocal (previous evaluation positive)”.

Take `Nc1cccc([N+](=O)[O-])c1CO`: the mutagenic call under setting [1] was “inactive; negative”; the mutagenic call (Test System: AMES SALMONELLA TYPHIMURIUM, Strain/Indicator: TA98, Metabolic Activation: RAT, LIVER, S-9, PHENOBARBITAL AND 5,6-BENZOFLAVONE, Method: PREINCUBATION) is “inactive; negative”; the mutagenic call under setting [2] is “inactive; negative”; the mutagenic call (Test System: AMES SALMONELLA TYPHIMURIUM, Strain/Indicator: TA100, Metabolic Activation: RAT, LIVER, S-9, PHENOBARBITAL AND 5,6-BENZOFLAVONE, Method: PREINCUBATION) is “inactive; negative”.
